Data from patent publication US10053461B2 (Hoffmann-La Roche Inc., priority 2015, dated 2018).

Test system: HBsAg
Assay: microbe, parasite or virus in culture
Conditions: Hepatitis B virus, HepG2.2.15
Description: HepG2.2.15 cells (Acs et al. Proc Natl Acad Sci USA, 84, (1987), 4641-4), a constitutively HBV-expressing cell line were cultured in DMEM+Glutamax-I medium (Invitrogen, Carlsbad, Calif., USA), supplemented with 10% fetal bovine serum (Invitrogen) and G418 (Invitrogen) at a final concentration of 200 mg/L and maintained in 5% CO2 at 37° C.
HepG2.2.15 cells were seeded in duplicate into white, 96-well plates at 1.5×10^4 cells/well. The cells were treated with a three-fold serial dilution series of the compounds in DMSO. The final DMSO concentration in all wells was 1% and DMSO was used as no drug control.
The HBsAg chemiluminescence immunoassay (CLIA) kit (Autobio Diagnostics Co., Zhengzhou, China, Catalog number: CL0310-2) was used to measure the levels of secreted HBV antigens semi-quantitatively. For the detection 50 μL/well culture supernatant was used and HBsAg was quantified using HBsAg chemiluminescence immunoassay (CLIA) kit (Autobio Diagnostics Co., Zhengzhou, China, Catalog number: CL0310-2), 50 μL of the supernatant was transferred to the CLIA assay plate and 50 μL of enzyme conjugate reagent was added into each well. The plates were sealed and gently agitated for 1 hour at room temperature. The supernatant-enzyme-mixture was discarded and wells were washed 6 times with 300 μL of PBS. The residual liquid was removed by plating the CLIA plate right side down on absorbent tissue paper. 25 μL of substrates A and B were added to each well. Luminance was measured using a luminometer (Mithras LB 940 Multimode Microplate Reader) after 10 minutes incubation. Dose-response curves were generated and the IC50 value was extrapolated by using the E-WorkBook Suite (ID Business Solutions Ltd., Guildford, UK). The IC50 was defined as the compound concentration (or conditioned media log dilution) at which HBsAg secretion was reduced by 50% compared to the no drug control.
The compounds of the present invention were tested for their activity to inhibit HBsAg as described herein.

COCCCOc1cc2c(cc1OC)-c1cc(=O)c(C(=O)O)cn1[C@H]1[C@@H]2CCC1(C)C (racemic) [Example 2, cis-10-methoxy-11-(3-methoxypropoxy)-3,3-dimethyl-7-oxo-1,2,3,3a,7,12b-hexahydrocyclopenta[c]pyrido[2,1-a]isoquinoline-6-carboxylic acid]
IC50: 1 nM

COc1cc2c(cc1OCc1ccccc1)[C@H]1CCCC[C@@H]1n1cc(C(=O)O)c(=O)cc1-2 (racemic) [Example 31, Trans-12-benzyloxy-11-methoxy-8-oxo-1,2,3,4,4a,13b-hexahydropyrido[1,2-f]phenanthridine-7-carboxylic acid]
IC50: 120 nM

COCCCOc1cc2c(cc1OC)-c1cc(=O)c(C(=O)O)cn1[C@@H]1CCSC[C@@H]21 (racemic) [Example 35, Trans-11-methoxy-12-(3-methoxypropoxy)-8-oxo-1,3,4,4a,8,13b-hexahydropyrido[2,1-a]thiopyrano[4,3-c]isoquinoline-7-carboxylic acid]
IC50: 110 nM

COCCCOc1cc2c(cc1OC)-c1cc(=O)c(C(=O)O)cn1[C@@H]1CCSC[C@H]21 (racemic) [Example 36, cis-11-methoxy-12-(3-methoxypropoxy)-8-oxo-1,3,4,4a,8,13b-hexahydropyrido[2,1-a]thiopyrano[4,3-c]isoquinoline-7-carboxylic acid]
IC50: 28 nM

COCCCOc1cc2c(cc1OC)-c1cc(=O)c(C(=O)O)cn1[C@H]1[C@H]2CCC1(C)C (relative stereo) [Example 1, Trans-10-methoxy-11-(3-methoxypropoxy)-3,3-dimethyl-7-oxo-1,2,3,3a,7,12b-hexahydrocyclopenta[c]pyrido[2,1-a]isoquinoline-6-carboxylic acid]
IC50: 10 nM

COc1cc2c(cc1O)[C@H]1CCC(C)(C)[C@H]1n1cc(C(=O)O)c(=O)cc1-2 (relative stereo) [Example 6, Cis-11-hydroxy-10-methoxy-3,3-dimethyl-7-oxo-1,2,3,3a,7,12b-hexahydrocyclopenta[c]pyrido[2,1-a]isoquinoline-6-carboxylic acid]
IC50: 84 nM

COc1cc2c(cc1OC)[C@H]1CCC(C)(C)[C@H]1n1cc(C(=O)O)c(=O)cc1-2 (relative stereo) [Example 7, Cis-10,11-dimethoxy-3,3-dimethyl-7-oxo-1,2,3,3a,7,12b-hexahydrocyclopenta[c]pyrido[2,1-a]isoquinoline-6-carboxylic acid]
IC50: 5 nM

COc1cc2c(cc1OCC(F)(F)F)[C@H]1CCC(C)(C)[C@H]1n1cc(C(=O)O)c(=O)cc1-2 (relative stereo) [Example 8, Cis-10-methoxy-3,3-dimethyl-7-oxo-11-(2,2,2-trifluoroethoxy)-1,2,3,3a,7,12b-hexahydrocyclopenta[c]pyrido[2,1-a]isoquinoline-6-carboxylic acid]
IC50: 3 nM

COc1cc2c(cc1OCC(C)C)[C@H]1CCC(C)(C)[C@H]1n1cc(C(=O)O)c(=O)cc1-2 (relative stereo) [Example 9, Cis-11-isobutoxy-10-methoxy-3,3-dimethyl-7-oxo-1,2,3,3a,7,12b-hexahydrocyclopenta[c]pyrido[2,1-a]isoquinoline-6-carboxylic acid]
IC50: 1 nM

COc1cc2c(cc1OCC1CC1)[C@H]1CCC(C)(C)[C@H]1n1cc(C(=O)O)c(=O)cc1-2 (relative stereo) [Example 10, Cis-11-(cyclopropylmethoxy)-10-methoxy-3,3-dimethyl-7-oxo-1,2,3,3a,7,12b-hexahydrocyclopenta[c]pyrido[2,1-a]isoquinoline-6-carboxylic acid]
IC50: 1 nM

COCCOc1cc2c(cc1OC)-c1cc(=O)c(C(=O)O)cn1[C@H]1[C@@H]2CCC1(C)C (relative stereo) [Example 11, Cis-10-methoxy-11-(2-methoxyethoxy)-3,3-dimethyl-7-oxo-1,2,3,3a,7,12b-hexahydrocyclopenta[c]pyrido[2,1-a]isoquinoline-6-carboxylic acid]
IC50: 4 nM

COc1cc2c(cc1OCCCC#N)[C@H]1CCC(C)(C)[C@H]1n1cc(C(=O)O)c(=O)cc1-2 (relative stereo) [Example 12, Cis-11-(3-cyanopropoxy)-10-methoxy-3,3-dimethyl-7-oxo-1,2,3,3a,7,12b-hexahydrocyclopenta[c]pyrido[2,1-a]isoquinoline-6-carboxylic acid]
IC50: 4 nM

COc1cc2c(cc1OCCCO)[C@H]1CCC(C)(C)[C@H]1n1cc(C(=O)O)c(=O)cc1-2 (relative stereo) [Example 13, Cis-11-(3-hydroxypropoxy)-10-methoxy-3,3-dimethyl-7-oxo-1,2,3,3a,7,12b-hexahydrocyclopenta[c]pyrido[2,1-a]isoquinoline-6-carboxylic acid]
IC50: 5 nM

COc1cc2c(cc1OCC(C)(C)CO)[C@H]1CCC(C)(C)[C@H]1n1cc(C(=O)O)c(=O)cc1-2 (relative stereo) [Example 14, Cis-11-(3-hydroxy-2,2-dimethylpropoxy)-10-methoxy-3,3-dimethyl-7-oxo-1,2,3,3a,7,12b-hexahydrocyclopenta[c]pyrido[2,1-a]isoquinoline-6-carboxylic acid]
IC50: 3 nM

COc1cc2c(cc1OCCCN1CCOCC1)[C@H]1CCC(C)(C)[C@H]1n1cc(C(=O)O)c(=O)cc1-2 (relative stereo) [Example 15, Cis-10-methoxy-3,3-dimethyl-11-(3-morpholinopropoxy)-7-oxo-1,2,3,3a,7,12b-hexahydrocyclopenta[c]pyrido[2,1-a]isoquinoline-6-carboxylic acid]
IC50: 6 nM

COc1cc2c(cc1OCCCN1CCCC1)[C@H]1CCC(C)(C)[C@H]1n1cc(C(=O)O)c(=O)cc1-2 (relative stereo) [Example 16, Cis-10-methoxy-3,3-dimethyl-7-oxo-11-(3-(pyrrolidin-1-yl)propoxy)-1,2,3,3a,7,12b-hexahydrocyclopenta[c]pyrido[2,1-a]isoquinoline-6-carboxylic acid]
IC50: 128 nM

COc1cc2c(cc1OCCCN1CCCC1=O)[C@H]1CCC(C)(C)[C@H]1n1cc(C(=O)O)c(=O)cc1-2 (relative stereo) [Example 17, Cis-10-methoxy-3,3-dimethyl-7-oxo-11-(3-(2-oxopyrrolidin-1-yl)propoxy)-1,2,3,3a,7,12b-hexahydrocyclopenta[c]pyrido[2,1-a]isoquinoline-6-carboxylic acid]
IC50: 25 nM

CCOC(=O)CCCOc1cc2c(cc1OC)-c1cc(=O)c(C(=O)O)cn1[C@H]1[C@@H]2CCC1(C)C (relative stereo) [Example 18, Cis-11-(4-ethoxy-4-oxobutoxy)-10-methoxy-3,3-dimethyl-7-oxo-1,2,3,3a,7,12b-hexahydrocyclopenta[c]pyrido[2,1-a]isoquinoline-6-carboxylic acid]
IC50: 10 nM

COc1cc2c(cc1OCCCC(=O)O)[C@H]1CCC(C)(C)[C@H]1n1cc(C(=O)O)c(=O)cc1-2 (relative stereo) [Example 19, Cis-11-(3-carboxypropoxy)-10-methoxy-3,3-dimethyl-7-oxo-1,2,3,3a,7,12b-hexahydrocyclopenta[c]pyrido[2,1-a]isoquinoline-6-carboxylic acid]
IC50: 505 nM

COc1cc2c(cc1OCCCSC)[C@H]1CCC(C)(C)[C@H]1n1cc(C(=O)O)c(=O)cc1-2 (relative stereo) [Example 20, Cis-10-methoxy-3,3-dimethyl-11-(3-(methylthio)propoxy)-7-oxo-1,2,3,3a,7,12b-hexahydrocyclopenta[c]pyrido[2,1-a]isoquinoline-6-carboxylic acid]
IC50: 2 nM

COc1cc2c(cc1OCCCS(C)(=O)=O)[C@H]1CCC(C)(C)[C@H]1n1cc(C(=O)O)c(=O)cc1-2 (relative stereo) [Example 21, Cis-10-methoxy-3,3-dimethyl-11-(3-(methylsulfonyl)propoxy)-7-oxo-1,2,3,3a,7,12b-hexahydrocyclopenta[c]pyrido[2,1-a]isoquinoline-6-carboxylic acid]
IC50: 17 nM

COc1cc2c(cc1OCCCCCCO)[C@H]1CCC(C)(C)[C@H]1n1cc(C(=O)O)c(=O)cc1-2 (relative stereo) [Example 22, Cis-11-((6-hydroxyhexyl)oxy)-10-methoxy-3,3-dimethyl-7-oxo-1,2,3,3a,7,12b-hexahydrocyclopenta[c]pyrido[2,1-a]isoquinoline-6-carboxylic acid]
IC50: 1 nM

COc1cc2c(cc1OCCCCCCNC(=O)OC(C)(C)C)[C@H]1CCC(C)(C)[C@H]1n1cc(C(=O)O)c(=O)cc1-2 (relative stereo) [Example 23, Cis-11-((6-((tert-butoxycarbonyl)amino)hexyl)oxy)-10-methoxy-3,3-dimethyl-7-oxo-1,2,3,3a,7,12b-hexahydrocyclopenta[c]pyrido[2,1-a]isoquinoline-6-carboxylic acid]
IC50: 2 nM

COc1cc2c(cc1OCCCCCCN)[C@H]1CCC(C)(C)[C@H]1n1cc(C(=O)O)c(=O)cc1-2 (relative stereo) [Example 24, Cis-11-((6-aminohexyl)oxy)-10-methoxy-3,3-dimethyl-7-oxo-1,2,3,3a,7,12b-hexahydrocyclopenta[c]pyrido[2,1-a]isoquinoline-6-carboxylic acid]
IC50: 20 nM

COc1cc2c(cc1OCCCCCCNC(C)=O)[C@H]1CCC(C)(C)[C@H]1n1cc(C(=O)O)c(=O)cc1-2 (relative stereo) [Example 25, Cis-11-((6-acetamidohexyl)oxy)-10-methoxy-3,3-dimethyl-7-oxo-1,2,3,3a,7,12b-hexahydrocyclopenta[c]pyrido[2,1-a]isoquinoline-6-carboxylic acid]
IC50: 6 nM

COc1cc2c(cc1OCCCCCCNS(C)(=O)=O)[C@H]1CCC(C)(C)[C@H]1n1cc(C(=O)O)c(=O)cc1-2 (relative stereo) [Example 26, Cis-10-methoxy-3,3-dimethyl-11-((6-(methylsulfonamido)hexyl)oxy)-7-oxo-1,2,3,3a,7,12b-hexahydrocyclopenta[c]pyrido[2,1-a]isoquinoline-6-carboxylic acid]
IC50: 2 nM

COCCCOc1cc2c(cc1Cl)-c1cc(=O)c(C(=O)O)cn1[C@@H]1CCCCC[C@@H]21 (relative stereo) [Example 27, Trans-13-chloro-12-(3-methoxypropoxy)-2-oxo-2,5a,6,7,8,9,10,10a-octahydrocyclohepta[c]pyrido[2,1-a]isoquinoline-3-carboxylic acid]
IC50: 20 nM
